# Where two headings read alike, the source gives them in different places.
# Assays:
# [1] = system: P-gp; assay: P-gp gene and protein expression in Caco-2 cells (qPCR, WB); type: cell-based, human; settings: ENR 5 and 20 μmol/L, SAL 0.5 and 2 μmol/L; 12 or 24 h
# Experimental: (§1) The relative expressions of CYP3A4, P-gp and BCRP in tissue of broiler and Caco-2 were evaluated via quantitative real-time PCR (RT–qPCR, Bio-Rad, Hercules, CA, USA). […] Relevant cells were treated as indicated and total RNA was extracted from cells and tissue using RNA isolater Total RNA Extraction Reagent (R401-01, Vazyme Biotech Co., Ltd., Nanjing, China) following the manufacturer’s protocols, then reverse-transcribed into cDNA using HiScript II Q Select RT SuperMix for Qpcr (R233-01, Vazyme Biotech Co., Ltd.). The cDNA was determined by quantitative RT-PCR using 2 × AceQ qPCR SYBR Green Master Mix (Q141-02, Vazyme Biotech Co., Ltd.) with the primers (listed in Supplementary Tables S1 and S2). All data were analyzed using the 2−ΔΔCt method.
# (§2) These were then collected in a RIPA lysis buffer (P0013B, Beyotime, Shanghai, China) and incubated on a rocker with ice for 30 min. Cell and tissue lysates were centrifuged at 12,000× g/4 °C for 15 min and lysates were boiled at 100 °C for 5 min in 5× SDS Loading Buffer and resolved by SDS-PAGE. […] The immunoreactive bands were visualized on a gel imaging system (Tanon 5200 Multi, Tanon Technology Co., Ltd., Shanghai, China), and the intensities of the immunoreactive bands were quantified using Quantity One.
# [2] = system: CYP3A4; assay: Screening of CYP450 enzymes that metabolize SAL and ENR with positive inhibitors (KCZ) in broiler liver microsomes; type: in vitro ADME; settings: 50 μmol/L ENR; 0.5 mg/mL broiler liver microsomes; KCZ pre-incubated 30 min at 41 °C, then 4 h
# Experimental: (§3) Probe drugs: a volume of 0.2 mL cold acetonitrile were added into 0.05 mL microsome incubation solution, then vortexed for 2 min to extract target compounds. The mixture was centrifuged at 12,000 rpm for 15 min. The supernatant was filtered through a 0.2 μm filter.
# Briefly, alpha-naphthoflavone (α-NIF, inhibitor of CYP1A2), sulfafenpyrazole (SUl, CYP2D6), sodium diethyldithiocarbamate (DIE, inhibitor of CYP2E1), omeprazole (OMP, inhibitor of CYP2C45) and ketoconazole (KCZ, inhibitor of CYP3A4) were incubated with 50 μmol/L SAL or the ENR-NADPH system, respectively. The system consisted of 0.5 mg/mL broiler liver microsomes, 0.05 mmol/L Tris-HCl buffer, and 1 mmol/L NADPH.
# [3] = system: CYP3A4 (broiler); assay: Probe substrate (testosterone) assay of CYP3A4 activity in broiler liver microsomes; type: in vitro ADME; settings: chicken (broiler)
# Experimental: as §3
# (§4) […]. […] Except for testosterone, which was incubated for 30 min, all other probe drugs were incubated for 4 h.
# [4] = system: broiler CYP3A4; assay: as above; type: in vitro ADME
# Experimental: as §3, §4
# [5] = system: BCRP; assay: BCRP gene and protein expression in Caco-2 cells (qPCR, WB); type: cell-based, human; settings: ENR 5 and 20 μmol/L; 12 and 24 h; concentration- and time-dependent
# Experimental: as §1, §2
# [6] = Pharmacokinetic studies of ENR and SAL in broilers (plasma, non-compartmental); settings: for AUC(0-t) / AUC(0-inf) / Cmax / k el / MRT last / MRT inf / Tmax / half-life: AA broiler, plasma, po, 7.5 mg/kg, n=6, Mean ± SD; for AUC(0-t): AUC0-36h; for AUC(0-t) / AUC(0-inf) / Cmax / k el / MRT last / MRT inf / Tmax: broiler plasma; for AUC(0-inf): AUC0-∞; for k el: Ke; for MRT last: MRT0-36h; for MRT inf: MRT0-∞; for half-life: t1/2, broiler plasma;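 for all read-outs here: plasma drug levels measured by HPLC or LC-MS/MS, with PK parameters obtained through non-compartmental analysis in WinNonlin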
# Experimental: (§6) Mobile phase compositions were 0.5 mol/L H3PO4-triethylamine (pH = 2.4, phase A) and acetonitrile (phase B) (82:18, v/v) [1, 18].
# (§7) SAL (Shandong Lukang, Jining, China): The LC-MS/MS assay method for SAL were introduced in the previous research [21]. The separate system of HPLC used 0.1% formic acid solution (phase A) and methanol (phase B) as mobile phase. […] Positive ion scanning mode was used; DP, CE, and CXP are 59.1 V, 65.64 V, and 12 V, respectively.
# (§8) Plasma sample: Add 0.8 mL of acetonitrile to 0.2 mL of plasma to precipitate proteins. After vortexing the mixture for 5 min, centrifuge at 12,000 rpm for 10 min. Transfer the supernatant to a new 10 mL tube. The supernatant was blown dry with nitrogen at 40 °C, and the pellet was redissolved with 1 mL of methanol. The methanol reconstituted solution was filtered through a 0.2 μm filter.
# (§9) PK parameters were calculated with WinNonlin software using non-compartmental settings (version 6.4; Pharsight Corporation, Mountain View, CA, USA).
# [7] = system: CYP3A4; assay: mRNA (RT-qPCR) and protein (Western blot) expression of hepatic CYP3A4 in treated broilers; type: in vivo
# Experimental: as §1
# These were then collected in a RIPA lysis buffer (P0013B, Beyotime, Shanghai, China) and incubated on a rocker with ice for 30 min. Cell and tissue lysates were centrifuged at 12,000× g/4 °C for 15 min and lysates were boiled at 100 °C for 5 min in 5× SDS Loading Buffer and resolved by SDS-PAGE. Proteins were transferred into a polyvinylidene fluoride (PVDF) membrane (Bio-Rad) and then incubated with the CYP3A4 Rabbit pAb (Cat#A2544, ABclonal, Wuhan, China), ABCG2 Rabbit pAb (Cat#A5661, ABclonal, Wuhan, China), P-gp Rabbit pAb (Cat#A11747, ABclonal, Wuhan, China) over night, respectively. They were then incubated with the HRP Goat Anti-Rabbit IgG (Cat#AS014, ABclonal, Wuhan, China) for 1.5 h. Immobilon Western Chemiluminescent HRP Substrate (Millipore) was used for protein detection. The immunoreactive bands were visualized on a gel imaging system (Tanon 5200 Multi, Tanon Technology Co., Ltd., Shanghai, China), and the intensities of the immunoreactive bands were quantified using Quantity One.
# [8] = system: broiler CYP2E1; assay: Probe substrate assay of CYP2E1 activity in broiler liver microsomes; type: in vitro ADME
# Experimental: Probe drugs: a volume of 0.2 mL cold acetonitrile were added into 0.05 mL microsome incubation solution, then vortexed for 2 min to extract target compounds. […] The supernatant was filtered through a 0.2 μm filter.
# [9] = system: P-gp; assay: mRNA and protein expression of P-gp in liver and small intestine of treated broilers; type: in vivo, broiler; settings: single gavage compared with the saline group
# Experimental: as §1
# (§5) These were then collected in a RIPA lysis buffer (P0013B, Beyotime, Shanghai, China) and incubated on a rocker with ice for 30 min. […] Proteins were transferred into a polyvinylidene fluoride (PVDF) membrane (Bio-Rad) and then incubated with the CYP3A4 Rabbit pAb (Cat#A2544, ABclonal, Wuhan, China), ABCG2 Rabbit pAb (Cat#A5661, ABclonal, Wuhan, China), P-gp Rabbit pAb (Cat#A11747, ABclonal, Wuhan, China) over night, respectively. […] The immunoreactive bands were visualized on a gel imaging system (Tanon 5200 Multi, Tanon Technology Co., Ltd., Shanghai, China), and the intensities of the immunoreactive bands were quantified using Quantity One.
# [10] = system: P-gp; parameters: method as in PMID 30989413; settings: cited from earlier work
# [11] = in vivo, po, 6 mg/kg
# Experimental: as §6, §7, §8, §9
# [12] = system: broiler CYP2A6; type: in vitro ADME; settings: microsomes
# Experimental: as §3
# [13] = system: BCRP; assay: mRNA and protein expression of BCRP in liver and small intestine of treated broilers; type: in vivo, broiler
# Experimental: as §1, §5
# [14] = in vivo; settings: po, 6 mg/kg
# Experimental: as §6, §7, §8, §9
# [15] = system: human P-gp; parameters: method as in PMID 21573958; settings: compared with P-gp inhibitor verapamil (Ver); cited from earlier work
# [16] = SAL (5 d) + ENR: SAL 60 mg/kg mixed feeding 5 days, then ENR 7.5 mg/kg gavage
# [17] = SAL + ENR: ENR 7.5 mg/kg + SAL 6.0 mg/kg co-gavage
# [18] = abstract, broilers, group not given
structure (smiles),measurement,setting,value
"CCN1CCN(c2cc3c(cc2F)c(=O)c(C(=O)O)cn3C2CC2)CC1 [ENR, Enrofloxacin]",gene and protein expressions of P-gp in Caco-2 cells,[1],significantly decreased
same,decrease of ENR metabolic rate after addition of the CYP3A4-specific inhibitor KCZ,[2],32%
same,"inhibition at 30 min, 100 µmol/L","[3]; probe testosterone (TS), 100 µmol/L, pre-incubated 30 min at 41 °C, broiler liver microsomes, probe testosterone, read-out: inhibition rate on CYP3A4 (TS metabolism)",32%
same,effect on CYP3A4 at short pre-incubation,[4]; 0 and 3 min of pre-incubation,induced
same,dependence of CYP3A4 inhibition on pre-incubation time,"[4]; 100 μmol/L, pre-incubated 0, 3, 5, 15, 30 min",time-dependent
same,dependence of CYP3A4 inhibition on concentration,"[4]; 50, 100 and 500 μmol/L",concentration-dependent inhibitory effects
same,expression of BCRP in Caco-2 cells,[5],decreased
same,AUC(0-t),[6]; ENR (7.5 mg/kg) gavage alone,12800 ± 3990 ng·h/mL
same,AUC(0-t),[6]; [16],15300 ± 1290 ng·h/mL
same,AUC(0-t),[6]; [17],16700 ± 1290 ng·h/mL
same,AUC(0-inf),[6]; ENR (7.5 mg/kg) gavage alone,13500 ± 4080 ng·h/mL
same,AUC(0-inf),[6]; [16],16000 ± 1450 ng·h/mL
same,AUC(0-inf),[6]; [17],17500 ± 1450 ng·h/mL
same,Cmax,[6]; ENR (7.5 mg/kg) gavage alone,1490 ± 540 ng/mL
same,Cmax,[6]; [16],1600 ± 160 ng/mL
same,Cmax,[6]; [17],1480 ± 160 ng/mL
same,k el,[6]; ENR (7.5 mg/kg) gavage alone,1.94e-05 s⁻¹
same,k el,[6]; [16],2.5e-05 s⁻¹
same,k el,[6]; [17],2.5e-05 s⁻¹
same,MRT last,[6]; ENR (7.5 mg/kg) gavage alone,8.29 ± 1.03 h
same,MRT last,[6]; [16],8.35 ± 0.52 h
same,MRT last,[6]; [17],9.06 ± 0.52 h
same,MRT inf,[6]; ENR (7.5 mg/kg) gavage alone,10.8 ± 1.76 h
same,MRT inf,[6]; [16],10.1 ± 0.9 h
same,MRT inf,[6]; [17],10.6 ± 0.9 h
same,Tmax,[6]; ENR (7.5 mg/kg) gavage alone,1.5 ± 0.55 h
same,Tmax,[6]; [16],2.17 ± 1.03 h
same,Tmax,[6]; [17],2.67 ± 1.03 h
same,half-life,[6]; ENR (7.5 mg/kg) gavage alone,7.45 ± 1.71 h
same,half-life,[6]; [16],8.13 ± 0.86 h
same,half-life,[6]; [17],8.65 ± 0.54 h
same,increase of area under the curve by SAL,[6]; [18],1.3 times
same,increase of elimination half-life by SAL,[6]; [18],1.2 times
same,effect of ENR on mRNA and protein levels of CYP3A4 in liver,[7]; ENR (5d) + SAL group contrasted with single SAL group,significantly inhibited
same,effect of ENR on CYP3A4 gene expression in liver,[7]; ENR + SAL group contrasted with single SAL group,overexpression
same,effect on protein expression of CYP3A4 in liver,[7]; single gavage (ENR 7.5 mg/kg or SAL 6.0 mg/kg) compared with physiological saline group,induced
"CC[C@@H](C(=O)[C@@H](C)[C@@H](O)[C@H](C)CCc1ccc(C)c(O)c1C(=O)O)[C@H]1O[C@](CC)([C@H]2CC[C@](O)(CC)[C@H](C)O2)C[C@@H]1C [LAS, lasalocid]",effect on CYP2E1 activity,[8],inductive effects
"CC[C@@H](C(=O)[C@@H](C)[C@@H](O)[C@H](C)[C@@H]1O[C@@H]([C@@H](CC)C(=O)O)CC[C@@H]1C)[C@H]1O[C@]2(C=C[C@@H](O)[C@]3(CC[C@@](C)([C@H]4CC[C@](O)(CC)[C@H](C)O4)O3)O2)[C@H](C)C[C@@H]1C [SAL, salinomycin]",effect on P-gp gene expression levels in the liver and small intestine,[9],suppress
same,effect on P-gp in A549 cells,"[10]; 5 μM SAL, 30 min and 1 h",no significant effect
same,effect on expression of P-gp in A549 cells,[10]; SAL treatment for 72 h,significantly induced
same,MRT0-48h,[11]; AA broiler,5.53 ± 1.16 h
same,MRT0-∞,[11]; AA broiler,7.53 ± 2.39 h
same,AUC0-48h,[11]; AA,218.96 ± 42.32 ng·h/mL
same,AUC0-∞,[11]; AA,264.78 ± 40.60 ng·h/mL
same,"inhibition at 30 min, 100 µmol/L","[3]; broiler, microsomes",52%
same,effect on CYP2A6 activity,[12],inductive effects
same,effect of SAL on expression of BCRP,[13]; ENR + SAL group compared with single ENR group,significantly inhibited
same,effect of SAL on expression of BCRP,[13]; SAL (5d) + ENR group compared with single ENR group,significantly induced
same,k el,"[14]; AA broiler, Ke",1.39e-05 s⁻¹
same,Tmax,"[14]; AA, Tmax",0.42 ± 0.3 h
same,half-life,"[14]; AA, t1/2",14.2 ± 3.1 h
same,inhibition of human P-gp,[15],effectively inhibit

# — publication PMC9952136 (Antibiotics, 2023)
